Measurements from patent US10874709B2, “Conjugate of salicylic acid and peptide” (CAREGEN CO., LTD., priority 2017, dated 2020).
Ends that are not written are not given here.

Legend:
[1] = Test of solubility in water; type: physicochemical; settings: distilled water, concentration of 10 mg/ml
[2] = system: TNF-α, IL-6, IL-1b, and COX-2; assay: Anti-inflammatory effect, Propionibacterium acnes-induced inflammatory cytokine mRNA by RT-PCR; type: cell-based; settings: keratinocyte, 50 μg/ml Propionibacterium acnes, 50 μM, 24 hours
Procedure: Anti-inflammatory effects of the compounds of the present disclosure were examined using Propionibacterium acnes. To this end, keratinocyte was seeded in a 6-well plate at a density of 300,000 cells per well, and then incubated in a DMEM culture medium (Gibco, USA) containing 10% FBS for 24 hours under conditions of 37° C. and 5% CO2. After replacing the medium by a fresh medium, the cells were treated with 50 μg/ml of Propionibacterium acnes, and then the treated Propionibacterium acnes was treated with each 50 μM of the compound 1 and the compound 3 of the present disclosure and salicylic acid used as the positive control, followed by incubation for 24 hours under the same conditions as above. RNA was isolated from the cells, and cDNA was synthesized using a cDNA synthesis kit (Intron, Korea). PCR premix (Intron, Korea) and primers for each of TNF-α, IL-6, IL-1b, and COX-2 in Table 3 below were used to perform PCR. mRNA levels of TNF-α, IL-6, IL-1 b and COX-2 were determined by 5% agarose gel electrophoresis.

[3] = system: HaCaT keratinocyte cell line; assay: Keratinocyte growth, sulforhodamine B colorimetric assay; type: cell-based; settings: 50 μM, 72 hours, SRB, absorbance 560 nm
Procedure: (Cancer Res. 48:4266(1988)) […] The cultured cell line was detached from the bottom of the culture plate using a 1% trypsin solution, and only cell precipitate was collected by centrifugation. The cell precipitate was suspended in DMEM without FBS, and then cultured for 24 hours under conditions of 37° C. and 5% CO2. 24 hours later, the medium was replaced by the same medium from which serum was completely removed. A blank sample in which the cell precipitate was dissolved sterile in 10% DMSO was prepared for standardization. Each of the compound 1 to the compound 4 (50 μM) of the present disclosure, salicylic acid (50 μM), and EGF (100 nM) as a positive control were treated. Incubation was carried out under the same conditions as above for 72 hours. After completing the incubation, each culture supernatant was removed and cells were fixed with ethanol and washed with phosphate buffer saline (PBS) three times. After removing the washing solution, the cells were treated with a colorimetric SRB solution, and then sufficiently washed with 1% acetic acid. The cells were observed under a microscope to examine living cells. Absorbance at UV 560 nm was measured to determine cell viability.

[4] = system: collagen, elastin, and fibronectin; assay: Extracellular matrix mRNA expression by RT-PCR; type: cell-based; settings: NIH3T3 fibroblast, 50 μM, 72 hours, as compared with salicylic acid
Procedure: (§1) Effects of the compounds of the present disclosure on extracellular matrix expression were examined using NIH3T3 fibroblast. To this end, NIH3T3 fibroblast was seeded in a 6-well plate at a density of 300,000 cells per well, and then incubated in a DMEM culture medium (Gibco, USA) containing 10% FBS for 24 hours under conditions of 37° C. and 5% CO2. The cultured cell line was detached from the bottom of the culture plate using a 1% trypsin solution, and a cell precipitate was collected by centrifugation. The cell precipitate was suspended in DMEM without FBS, and then cultured for 24 hours under conditions of 37° C. and 5% CO2. 24 hours later, the medium was replaced by the same medium from which serum was completely removed. A blank sample in which the cell precipitate was dissolved sterile in 10% DMSO was prepared for standardization. Each of the compound 1 and the compound 3 of the present disclosure, and salicylic acid as a positive control were treated at a concentration of 50 μM. Incubation was carried out under the same conditions as above for 72 hours. […]
Meanwhile, RNA was isolated from the cells treated in the same manner as the above experiment, and then cDNA was synthesized using a cDNA synthesis kit (Intron, Korea). […] Thereafter, mRNA levels of collagen, elastin, and fibronectin were determined by 5% agarose gel electrophoresis.

[5] = system: collagen, elastin, and fibronectin; assay: Extracellular matrix protein expression by immunocytostaining; type: cell-based; settings: NIH3T3 fibroblast, 50 μM, 72 hours, as compared with salicylic acid
Procedure: as §1, with “hours. Thereafter, to examine collagen, elastin, and fibronectin expression by immunocytostaining, cells were fixed with 4% paraformaldehyde, permeated with 0.5% Triton X-100, and blocked with 3% BSA.” for “hours.”

Propionibacterium acnes = assay: Antibacterial effect, paper disc clear zone on agar plate; type: cell-based; settings: paper discs soaked with 200 mM, 3 days
Procedure: Antibacterial effects of the compounds synthesized in Example <1-2> were examined using Propionibacterium acnes. To this end, Propionibacterium acnes was first cultured on an agar plate. Paper discs were soaked with each 200 mM of the compound 1 to the compound 4 synthesized in Example <1-2> and salicylic acid, and then the paper disc soaked with the sample was placed on the agar plate on which Propionibacterium acnes had been cultured, followed by incubation. 3 days later, the size of a clear zone with no microbial growth was measured to determine the antibacterial effect of each compound.

Compound	solubility in water [1]	expression of inflammatory cytokines induced by Propionibacterium acnes [2]	growth of keratinocytes [3]	mRNA expression levels of collagen, elastin, and fibronectin [4]	protein expression levels of collagen, elastin, and fibronectin [5]	antibacterial effect (size of clear zone) (Propionibacterium acnes)
O=C(O)c1ccccc1O [salicylic acid, 2-hydroxybenzoic acid]	hardly dissolved in water	hardly inhibited	inhibited growth of keratinocytes due to toxicity	–	–	–
compound 3: salicylic acid linked via covalent bond to peptide of SEQ ID NO: 3 (KLKKTETQ) (also: salicylic acid linked via covalent bond)	–	remarkably reduced	–	remarkably increased	remarkably increased	remarkably increased antibacterial effects
